Measured values as given in patent publication US8871971B2, “Protection of normal cells” (priority 2002, dated 2014).
One block for each molecule: values may come before it.

Key:
[1] = test system: Sulindac reductase activity in calf liver; assay: Sulindac reductase activity in calf liver fractions; type: biochemical, bovine; conditions: mitochondria, S-100 and S-100 pellet of liver; preliminary evidence
Experimental: Mammalian enzymes. […] To prepare mitochondria, the S10 pellets were suspended in 20 ml buffer A. […] The tubes were centrifuged at 24,000×g for 24 min. The pellets were resuspended in buffer A and centrifuged at 20,000×g for 15 min. The pellets (containing mitochondria) were suspended in 2 ml of buffer A. All fractions were stored at -80° C.

[2] = target: T1, MsrB (Escherichia coli, UniProt P0A746); assay: Reductase assay with TLC of products; conditions: 100 nmoles substrate, 21 μg MsrB, 15 mM DTT, 2 hours 37° C.
Experimental: (§2) Reductase assay and thin layer chromatography (TLC). […] Incubation was carried out for 2 hours at 37° C., at the end of which the duplicate samples were combined and dried in a speed-vacuum unit at room temperature. The residue was suspended in 50 μl of ethanol, which was then loaded onto a silica gel TLC plate. The plate was developed with butanol: acetic acid:water (60:15:25) as the solvent. The compounds were visualized by their yellow color.

[3] = target: T2, MsrA (Escherichia coli, UniProt P0A744); assay: Reductase assay with TLC of products; conditions: 100 nmoles substrate, 3 μg MsrA, 15 mM DTT, 2 hours 37° C.
Experimental: as §2

[4] = test system: Membrane Msr (mem-R,S-Msr); assay: Extraction reductase assay, sulindac as substrate; type: biochemical, E. coli; conditions: for Nmoles formed: 35 μg of membrane fraction
[5] = test system: rat hearts; assay: Ischemia/reperfusion in Langendorff heart, LDH release; type: in vivo, rats; conditions: 0.1 mg in diet for 2 days; ischemia 45 minutes, reperfusion 2 hours
Experimental: […]. […] The hearts were removed, exposed to ischemia for 45 minutes and then perfused for 2 hours (reperfusion) using a Langendorff procedure. The cellular damage was measured by assaying for the release of lactic dehydrogenase (LDH).

[6] = test system: Normal Lung cells; assay: Viability of normal lung cells exposed to TBHP (MTS assay); type: cell-based; conditions: 500 μM for 48 hr, then TBHP 2 hr
Experimental: Normal lung cells were treated with 500 μM sulindac-(R+S; near 50% each), 500 μM sulindac-R (>99% R; <1% S) or 500 μM sulindac-S (>99% S; <1% R) for 48 hr. The sulindac-R and sulindac-S samples were obtained from a racemic mixture of epimers using a chiral column analogous to the process described above. The cells were washed and then exposed to the indicated concentration of tert-Butyl Hydroperoxide (TBHP) for 2 hr. Cell viability was measured using the standard MTS assay. A background absorbance of 0.12 was subtracted from average of four replicate samples. The data are plotted as a bar graph because the concentrations are not in equal intervals. The error bars are the SEM of four replicate samples. The data are presented on three separate graphs using the untreated samples from that plate.

[7] = test system: Cancer Skin (skin SCC) cells; assay: Conversion of sulindac epimers to the sulfide in cells; type: in vitro ADME; conditions: 200 μM epimer, 4 hours, serum-free medium
Experimental: (§1) After incubation, the cells are collected, rinsed and lysed with acetonitrile. The cytosolic contents are separated on a C-18 column.

[8] = test system: HeLa cells; assay: as above; type: in vitro ADME; conditions: 200 μM epimer, 4 hours, serum-free medium
Experimental: as §1

[9] = test system: Normal Lung cells; assay: as above; type: in vitro ADME; conditions: 200 μM epimer, 4 hours, serum-free medium
Experimental: as §1

[10] = test system: Normal Cardiomyocyte; assay: as above; type: in vitro ADME; conditions: 200 μM epimer, 4 hours, serum-free medium
Experimental: as §1

[11] = test system: Cancer Lung cells; assay: as above; type: in vitro ADME; conditions: 200 μM epimer, 4 hours, serum-free medium
Experimental: as §1

[12] = test system: PC-12 cells; assay: Viability of PC-12 cells treated with MPP+ (trypan blue exclusion); type: cell-based; conditions: for Dead cells (%) Exp 1 / Dead cells (%) Exp 2: 0.2 mM MPP+ 24 h
[13] = test system: fSMsr; assay: Extraction reductase assay, sulindac as substrate; conditions: 200 μg fSMsr
Source text: (§3) Bacterial enzymes. […] The enzyme preparations had specific activities similar those reported earlier.

[14] = test system: MsrA1; assay: Extraction reductase assay, sulindac as substrate; conditions: 40 μg MsrA1
Source text: as §3

[15] = target: fRMsr (Escherichia coli, UniProt P76270); assay: Extraction reductase assay, sulindac as substrate; conditions: 290 μg fRMsr
Source text: as §3

[16] = target: T2, MsrA; assay: Extraction reductase assay, sulindac as substrate; conditions: 250 ng MsrA
Source text: as §3

[17] = target: MsrA from E. coli (Escherichia coli, UniProt P0A744); assay: Reductase assay (NADPH oxidation): reduction of sulindac to sulindac sulfide by MsrA
Experimental: Reductase assay. […] Incubations were performed at 37° C. for various times.
At the end of incubation, 500 μl of 0.5 M Bis-Tris-Cl pH 5.5 and 3 ml of ethyl acetate were added. The tubes were mixed (vortexed) for 5 seconds (3 times). After separation, the organic phase was removed and another 3 ml of ethyl acetate were added. After mixing the organic phase was again removed.

[18] = test system: G93A transgenic mice; assay: G93A SOD1 transgenic mouse model of familial ALS; type: in vivo
Experimental: Transgenic mice expressing a mutant form of SOD similar to that found in human ALS patients were used for this study. Transgenic male mice with a G93A human SOD1 (G1H/+) mutation (B6SJL-TgN (SOD1-G93A)1 Gur; Jackson Laboratories, ME) were used to breed with female B6SJL mice (Jackson Laboratories, ME). The F1 generations were genotyped for the G93A mutation with polymerase chain reaction (PCR) using tail DNA, and two specific primers from the SOD1 gene.
Motor performance was assessed by Rotarod testing for each group and survival time was recorded.
Motor function testing. Mice were trained for 2-3 days to become acquainted with the Rotarod apparatus (Columbus instruments, Columbus, Ohio). Rotarod performances were assessed in G93A mice starting at 60 days of age. The testing began with placing the mice on a rod that rotates at 12 rpms. The time period that the mice stayed on the rod before falling off was recorded as a measurement of the competence of their motor function. Three trials were performed, and the best result of the three trials was recorded representing the status of the motor performance. Mice were tested twice a week until they could no longer perform the task.
Survival times. The initial sign of disease in G93A transgenic mice is a resting tremor that progresses to gait impairment, asymmetrical or symmetrical paralysis of the hind limbs, and ultimately complete paralysis at the end stage. Mice were sacrificed when they were unable to roll over within 20 seconds after being pushed on their side. This time point was determined to be the time of survival, at which time the mice were sacrificed.
Light microscopic immunocytochemistry. Mice were perfused transcardially with cold 0.1M phosphate-buffered saline (PBS) for 1 minute followed by cold 4% paraformaldehyde in PBS for 10 minutes. The spinal cords were removed rapidly, blocked coronally, and post-fixed in 4% paraformaldehyde in PBS for 6 hours. Blocks were cryo-protected in 30% sucrose for 24 hours and were sectioned on a cryostat at a thickness of 35 micrometers. All protocols were conducted within NIH guidelines for animal research and were approved by the Institutional Animal Care and Use Committee (IACUC).
Serial transverse sections (50 μm thick) were cut on a cryostat and collected for Nissl staining. Every fourth section was analyzed for neuronal volume and number using the optical fractionator and nucleator probes of the Stereo Investigator System (Microbrightfield, Colchester, Vt.). Six tissue sections of the lumbar spinal cord from each mouse were analyzed. All cells were counted from within the ventral horn below a horizontal line across the gray matter through the ventral border of the central canal. Photomicrographs were taken on a Zeiss Axiophot II microscope.
Statistical analysis. Statistical analysis of survival was performed using Kaplan-Meier test for survival measured in postnatal days, Fisher's Test for mean age of death analysis, and Scheffe test for motor performance.

[19] = target: T1, MsrB; assay: Extraction reductase assay, sulindac as substrate; conditions: 10 μg MsrB
Source text: as §3

[20] = test system: Drosophila; assay: Survival of flies exposed to paraquat oxidative stress; type: in vivo; conditions: for Flies alive: 2.5 mM paraquat, 2 mM sulindac; for Survival rate: 10 mM paraquat
Experimental: Paraquat is a cytotoxic compound known to form superoxide radicals intracellularly. Three different concentrations of paraquat (i.e., 2.5 mM, 5 mM and 10 mM) were tested. […] After 3 days at 25° C., flies were transferred to test vials for counting.

[21] = 0.1 mM sulindac 48 h pretreatment
[22] = 0.2 mM sulindac 48 h pretreatment
[23] = 0.5 mM sulindac 48 h pretreatment
[24] = 0.5 mM sulindac pretreatment, 0.2 mM MPP+
[25] = Tube 2: no MsrA, sulindac 5 μl (0.2M), thioredoxin 3 μl
[26] = Tube 3: MsrA 1 μl (100 ng/μl), 20 min
[27] = Tube 4: MsrA 2 μl (100 ng/μl), 20 min
[28] = Tube 5: MsrA 4 μl (100 ng/μl), 20 min
[29] = Tube 7: MsrA 2 μl (100 ng/μl), 10 min
[30] = Tube 8: MsrA 2 μl (100 ng/μl), 30 min

T1 sequence (P0A746 whole entry): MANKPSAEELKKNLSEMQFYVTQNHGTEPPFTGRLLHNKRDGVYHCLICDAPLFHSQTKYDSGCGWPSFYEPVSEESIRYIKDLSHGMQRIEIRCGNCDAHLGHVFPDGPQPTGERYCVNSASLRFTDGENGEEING
Chain of MsrA from E. coli (P0A744 whole entry): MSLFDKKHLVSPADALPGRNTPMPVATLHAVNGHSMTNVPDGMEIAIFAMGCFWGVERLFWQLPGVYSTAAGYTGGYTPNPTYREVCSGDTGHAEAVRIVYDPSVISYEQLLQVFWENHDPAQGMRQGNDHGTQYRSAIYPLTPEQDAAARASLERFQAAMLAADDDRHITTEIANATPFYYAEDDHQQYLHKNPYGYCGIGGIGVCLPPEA
T2 sequence (P0A744 whole entry): as above
Chain of fRMsr (P76270 whole entry): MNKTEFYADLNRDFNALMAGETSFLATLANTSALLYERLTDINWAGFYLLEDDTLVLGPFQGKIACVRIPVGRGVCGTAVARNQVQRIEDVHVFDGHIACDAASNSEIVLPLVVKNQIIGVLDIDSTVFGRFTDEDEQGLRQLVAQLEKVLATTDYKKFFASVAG

Effect of added excess Met(O) epimer on sulindac reductase activity [1]: only a slight effect
SMILES: C[S@@+]([O-])CC[C@H](N)C(=O)O [Met-R—(O)]

SMILES: CSCCC(NC(=O)CC1=C(C)/C(=C/c2ccc([S+](C)[O-])cc2)c2ccc(F)cc21)C(=O)O (stereo not shown) [SMO]
Substrate for MsrB (reduction products on TLC) [2]: substrate for MsrB
Substrate for MsrA (reduction products on TLC) [3]: substrate for MsrA

Nmoles formed [4]: 2.41 nmol
SMILES: CC1=C(CC(=O)O)c2cc(F)ccc2/C1=C\c1ccc([S@@+](C)[O-])cc1 [R-epimer, R-sulindac sulfoxide]
Protection of hearts from ischemia/reperfusion damage (LDH release) [5]: protects their hearts from oxidative damage
Protection against TBHP compared with other forms [6]: protects better as compared to sulindac-(R+S) or Sulindac-S
TBHP concentration up to which protection is seen [6]: 340 µM

SMILES: C[S+]([O-])CC[C@H](N)C(=O)O (stereo partly shown) [Met-S—(O)]
Effect of added excess Met(O) epimer on sulindac reductase activity [1]: inhibited the activity in all three fractions

SMILES: CC1=C(CC(=O)O)c2cc(F)ccc2/C1=C\c1ccc([S@+](C)[O-])cc1 [S-epimer, S-sulindac sulfoxide]
Amount formed (picomoles) [7]: 57 picomoles
Amount formed (picomoles) [8]: 7.9 picomoles
Amount formed (picomoles) [9]: 35 picomoles
Amount formed (picomoles) [10]: 120.9 picomoles
Amount formed (picomoles) [11]: 17.7 picomoles
TBHP concentration at which error bars begin to overlap [6]: ~220 µM
TBHP concentration up to which protection is seen [6]: ~180 µM

SMILES: CC1=C(CC(=O)O)c2cc(F)ccc2/C1=C\c1ccc([S+](C)[O-])cc1 (stereo not shown) [Sulindac]
Dead cells (%) Exp 1 [12, 21]: 67%
Dead cells (%) Exp 2 [12, 21]: 74%
Dead cells (%) Exp 1 [12, 22]: 55%
Dead cells (%) Exp 2 [12, 22]: 39%
Dead cells (%) Exp 1 [12, 23]: 34%
Dead cells (%) Exp 2 [12, 23]: 35%
Cell death [12, 24]: approximately 35%
Cell survival [12, 24]: ~65%
Effect on viability of the cells ([12]; in the absence of MPP+): no effect on the viability of the cells
Substrate for MsrB (reduction products on TLC) [2]: not a substrate for MsrB
Units of activity [13]: 0 nmoles of SS formed per hour
Units of activity [14]: <0.9 nmoles of SS formed per hour
Substrate for MsrA (reduction products on TLC) [3]: substrate for MsrA
Units of activity [15]: 0 nmoles of SS formed per hour
Units of activity [16]: 11.3 nmoles of SS formed per hour
OD340 [17, 25]: 0.660
Sulindac sulfide [17, 25]: 0 nmol
OD340 [17, 26]: 0.622
Sulindac sulfide [17, 26]: 5.8 nmol
Δ OD340 [17, 26]: 0.038
OD340 [17, 27]: 0.586
Sulindac sulfide [17, 27]: 11.2 nmol
Δ OD340 [17, 27]: 0.074
OD340 [17, 28]: 0.522
Sulindac sulfide [17, 28]: 21.0 nmol
Δ OD340 [17, 28]: 0.138
OD340 ([17]; Tube 6: MsrA 2 μl, no thioredoxin, 20 min): 0.684
OD340 [17, 29]: 0.626
Sulindac sulfide [17, 29]: 5.2 nmol
Δ OD340 [17, 29]: 0.034
OD340 [17, 30]: 0.531
Sulindac sulfide [17, 30]: 19.4 nmol
Δ OD340 [17, 30]: 0.129
Nmoles formed [4]: 2.75 nmol
Units of activity ([4]; 50 μg membrane fraction): 5.1 nmoles of SS formed per hour
Motor performance (Rotarod performance times) ([18]; 300 PPM and 450 PPM groups vs G93A controls): significant improvement in motor performance
Mean survival time ([18]; 300 PPM in food from postnatal day 30): 135.17 ± 11.4 days
Increase in survival over control mice ([18]; 450 PPM in food): 7%
Average survival ([18]; 450 PPM in food from postnatal day 30): 131.17 ± 10.9 days
Scheffe for motor performance, Mean Diff. ([18]; Controls vs Sulindac 300 PPM): −59.443
Scheffe for motor performance, Mean Diff. ([18]; Controls vs Sulindac 450 PPM): −73.119
Scheffe for motor performance, Mean Diff. ([18]; Sulindac 300 PPM vs Sulindac 450 PPM): −13.676
Counts of motor neurons in spinal cord sections ([18]; vs G93A controls): significantly higher counts of motor neurons
Units of activity [19]: 0 nmoles of SS formed per hour
TBHP concentration after which protection declined rapidly [6]: 80 to 100 µM
Flies alive ([20]; 3 day): approximately 95%
Flies alive ([20]; 6 day): ~60%
Survival rate ([20]; after 2 days): ~85%
Survival rate ([20]; after 3 days): ~57%
